# Data taken from patent EP4603105A1, “PHARMACEUTICAL COMPOSITION CONTAINING CYCLIC COMPOUND HAVING SELECTIVE KRAS INHIBITORY EFFECT AGAINST HRAS AND NRAS” (CHUGAI SEIYAKU KABUSHIKI KAISHA, priority 2022, dated 2024).
# How the values were obtained:
# [1] = target: GDP-bound KRAS wild-type protein (Homo sapiens, UniProt P01116); assay: Binding to KRAS by surface plasmon resonance (SPR), dissociation constant KD; conditions: Single Cycle Kinetics, 1:1 binding model
# Outline: (§1)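 SPR, 30°C: Avi-biotin RAS·GDP captured via Biotin CAPture (~100–300 RU); running buffer HBS pH 7.4, 1 mM DTT, 10 mM MgCl2, 0.01% Tween 20, 10 µM GDP, 4% DMSO. Single-cycle kinetics, 100 µL/min, 75 s injections; 1:1 model → KD.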
# [2] = target: GDP-bound NRAS wild-type protein (Homo sapiens, UniProt P01111); assay: Binding to NRAS by surface plasmon resonance (SPR), KD and KD ratio to KRAS; conditions: ratio of KD with respect to GDP-bound NRAS wild-type protein to KD with respect to KRAS
# GDP-bound NRAS wild-type protein, sequence (P01111 whole entry): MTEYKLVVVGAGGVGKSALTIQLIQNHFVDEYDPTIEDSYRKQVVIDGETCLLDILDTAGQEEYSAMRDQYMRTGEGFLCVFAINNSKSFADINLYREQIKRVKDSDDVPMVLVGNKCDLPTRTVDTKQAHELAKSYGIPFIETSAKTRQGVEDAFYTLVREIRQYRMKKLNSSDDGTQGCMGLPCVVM
# Outline: as §1
# HRAS wild-type protein = HRAS wild-type protein (Homo sapiens, UniProt P01112); assay: Binding to HRAS by surface plasmon resonance (SPR), KD and KD ratio to KRAS; conditions: ratio of KD with respect to HRAS wild-type protein to KD with respect to KRAS
# HRAS wild-type protein, sequence (P01112 whole entry): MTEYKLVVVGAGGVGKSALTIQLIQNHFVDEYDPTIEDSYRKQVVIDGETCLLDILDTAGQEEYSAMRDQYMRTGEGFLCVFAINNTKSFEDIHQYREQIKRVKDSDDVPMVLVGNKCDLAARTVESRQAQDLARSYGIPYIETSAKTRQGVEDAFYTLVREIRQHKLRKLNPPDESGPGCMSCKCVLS
# Outline: as §1
# [3] = test system: human lung cancer strain NCI-H441; assay: NCI-H441 cell proliferation inhibitory activity (CellTiter-Glo, 4 days); type: cell-based; conditions: 50% proliferation inhibitory concentration, four days, read-out: NCl-H441 IC50
# Outline: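 Proliferation was scored by […] measured after the reagent was added to cultures kept at 37°C in 5% carbon dioxide.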
# GDP-bound KRAS wild-type protein, sequence (P01116 1-188 isoform P01116-2): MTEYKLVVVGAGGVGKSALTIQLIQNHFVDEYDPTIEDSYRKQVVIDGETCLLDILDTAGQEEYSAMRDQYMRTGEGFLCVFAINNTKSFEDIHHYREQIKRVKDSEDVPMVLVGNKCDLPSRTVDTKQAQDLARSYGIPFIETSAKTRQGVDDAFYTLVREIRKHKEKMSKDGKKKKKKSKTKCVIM
Structure (SMILES),Kd [1],NRAS /KRAS [2],HRAS /KRAS (HRAS wild-type protein),IC50 [3]
CCO[C@@H]1C[C@H]2C(=O)NC3(CCC3)C(=O)N(C)[C@@H](C3CCCC3)C(=O)N(C)[C@H](C(=O)N(C)C)CC(=O)N(C)[C@@H](Cc3cccc(C#N)c3)C(=O)N[C@@H]([C@@H](C)CC)C(=O)N(C)CC(=O)N(C)[C@H]3CCCCCN(C3=O)[C@@H](Cc3ccc(C(F)(F)F)cc3)C(=O)N(C)CC(=O)N[C@@H](CCc3cc(F)c(C(F)(F)F)c(F)c3)C(=O)N2C1 [PP1172],0.17 nM,B (a compound having 3 or more and less than 10 is denoted as B),B (a compound having 3 or more and less than 10 is denoted as B),48.3 nM
CCO[C@@H]1C[C@H]2C(=O)NC3(CCC3)C(=O)N(C)[C@@H](C3CCCC3)C(=O)N(C)[C@H](C(=O)N(C)C)CC(=O)N(C)[C@@H](Cc3ccc(C#N)cc3)C(=O)N[C@@H]([C@@H](C)CC)C(=O)N(C)CC(=O)N(C)[C@H]3CCCCCN(C3=O)[C@@H](Cc3ccc(C(F)(F)F)cc3)C(=O)N(C)CC(=O)N[C@@H](CCc3cc(F)c(C(F)(F)F)c(F)c3)C(=O)N2C1 [PP1173],0.18 nM,B (a compound having 3 or more and less than 10 is denoted as B),B (a compound having 3 or more and less than 10 is denoted as B),70.8 nM
CCO[C@@H]1C[C@H]2C(=O)NC3(CCC3)C(=O)N(C)[C@@H](C3CCCC3)C(=O)N(C)[C@H](C(=O)N(C)C)CC(=O)N(C)[C@@H](Cc3ccc(Cl)c(Cl)c3)C(=O)N[C@@H]([C@@H](C)CC)C(=O)N(C)CC(=O)N(C)[C@H]3CCCCCN(C3=O)[C@@H](Cc3ccc(C(F)(F)F)cc3)C(=O)N(C)CC(=O)N[C@@H](CCc3cc(F)c(C(F)(F)F)c(F)c3)C(=O)N2C1 [PP1174],1 nM,B (a compound having 3 or more and less than 10 is denoted as B),B (a compound having 3 or more and less than 10 is denoted as B),85.2 nM
CCO[C@@H]1C[C@H]2C(=O)NC3(CCC3)C(=O)N(C)[C@@H](C3CCCC3)C(=O)N(C)[C@H](C(=O)N3CCOCC3)CC(=O)N(C)[C@@H](C)C(=O)N[C@@H]([C@@H](C)CC)C(=O)N(C)CC(=O)N(C)[C@H]3CCCCCN(C3=O)[C@@H](Cc3ccc(F)cc3)C(=O)N(C)CC(=O)N[C@@H](CCc3cc(F)c(C(F)(F)F)c(F)c3)C(=O)N2C1 [PP1175],0.16 nM,B (a compound having 3 or more and less than 10 is denoted as B),B (a compound having 3 or more and less than 10 is denoted as B),23.5 nM
CCO[C@@H]1C[C@H]2C(=O)NC3(CCC3)C(=O)N(C)[C@@H](C3CCCC3)C(=O)N(C)[C@H](C(=O)N3CCOCC3)CC(=O)N(C)[C@@H](CC(F)F)C(=O)N[C@@H]([C@@H](C)CC)C(=O)N(C)CC(=O)N(C)[C@H]3CCCCCN(C3=O)[C@@H](Cc3ccc(F)cc3)C(=O)N(C)CC(=O)N[C@@H](CCc3cc(F)c(C(F)(F)F)c(F)c3)C(=O)N2C1 [PP1177],0.081 nM,B (a compound having 3 or more and less than 10 is denoted as B),B (a compound having 3 or more and less than 10 is denoted as B),32.5 nM
CCO[C@@H]1C[C@H]2C(=O)NC3(CCC3)C(=O)N(C)[C@@H](C3CCCC3)C(=O)N(C)[C@H](C(=O)N3CCOCC3)CC(=O)N(C)[C@@H](CC3CC3)C(=O)N[C@@H]([C@@H](C)CC)C(=O)N(C)CC(=O)N(C)[C@H]3CCCCCN(C3=O)[C@@H](Cc3ccc(F)cc3)C(=O)N(C)CC(=O)N[C@@H](CCc3cc(F)c(C(F)(F)F)c(F)c3)C(=O)N2C1 [PP1178],0.16 nM,B (a compound having 3 or more and less than 10 is denoted as B),B (a compound having 3 or more and less than 10 is denoted as B),26.3 nM
CCO[C@@H]1C[C@H]2C(=O)NC3(CCC3)C(=O)N(C)[C@@H](C3CCCC3)C(=O)N(C)[C@H](C(=O)N3CCOCC3)CC(=O)N(C)[C@@H](Cc3cccs3)C(=O)N[C@@H]([C@@H](C)CC)C(=O)N(C)CC(=O)N(C)[C@H]3CCCCCN(C3=O)[C@@H](Cc3ccc(F)cc3)C(=O)N(C)CC(=O)N[C@@H](CCc3cc(F)c(C(F)(F)F)c(F)c3)C(=O)N2C1 [PP1183],0.26 nM,B (a compound having 3 or more and less than 10 is denoted as B),B (a compound having 3 or more and less than 10 is denoted as B),27.8 nM
CCO[C@@H]1C[C@H]2C(=O)NC3(CCC3)C(=O)N(C)[C@@H](C3CCCC3)C(=O)N(C)[C@H](C(=O)N3CCOCC3)CC(=O)N(C)[C@@H](Cc3ccsc3)C(=O)N[C@@H]([C@@H](C)CC)C(=O)N(C)CC(=O)N(C)[C@H]3CCCCCN(C3=O)[C@@H](Cc3ccc(F)cc3)C(=O)N(C)CC(=O)N[C@@H](CCc3cc(F)c(C(F)(F)F)c(F)c3)C(=O)N2C1 [PP1184],0.16 nM,B (a compound having 3 or more and less than 10 is denoted as B),B (a compound having 3 or more and less than 10 is denoted as B),91.9 nM
CCO[C@@H]1C[C@H]2C(=O)NC3(CCC3)C(=O)N(C)[C@@H](C3CCCC3)C(=O)N(C)[C@H](C(=O)N3CCOCC3)CC(=O)N(C)[C@@H](Cc3ccccc3C#N)C(=O)N[C@@H]([C@@H](C)CC)C(=O)N(C)CC(=O)N(C)[C@H]3CCCCCN(C3=O)[C@@H](Cc3ccc(F)cc3)C(=O)N(C)CC(=O)N[C@@H](CCc3cc(F)c(C(F)(F)F)c(F)c3)C(=O)N2C1 [PP1185],0.5 nM,B (a compound having 3 or more and less than 10 is denoted as B),B (a compound having 3 or more and less than 10 is denoted as B),175 nM
CCO[C@@H]1C[C@H]2C(=O)NC3(CCC3)C(=O)N(C)[C@@H](C3CCCC3)C(=O)N(C)[C@H](C(=O)N3CCOCC3)CC(=O)N(C)[C@@H](Cc3ccc(C#N)cc3)C(=O)N[C@@H]([C@@H](C)CC)C(=O)N(C)CC(=O)N(C)[C@H]3CCCCCN(C3=O)[C@@H](Cc3ccc(F)cc3)C(=O)N(C)CC(=O)N[C@@H](CCc3cc(F)c(C(F)(F)F)c(F)c3)C(=O)N2C1 [PP1187],0.12 nM,B (a compound having 3 or more and less than 10 is denoted as B),B (a compound having 3 or more and less than 10 is denoted as B),52.3 nM
CCO[C@@H]1C[C@H]2C(=O)NC3(CCC3)C(=O)N(C)[C@@H](C3CCCC3)C(=O)N(C)[C@H](C(=O)N3CCOCC3)CC(=O)N(C)[C@@H](Cc3ccc(Cl)c(Cl)c3)C(=O)N[C@@H]([C@@H](C)CC)C(=O)N(C)CC(=O)N(C)[C@H]3CCCCCN(C3=O)[C@@H](Cc3ccc(F)cc3)C(=O)N(C)CC(=O)N[C@@H](CCc3cc(F)c(C(F)(F)F)c(F)c3)C(=O)N2C1 [PP1188],0.43 nM,B (a compound having 3 or more and less than 10 is denoted as B),B (a compound having 3 or more and less than 10 is denoted as B),33.5 nM
CCO[C@@H]1C[C@H]2C(=O)NC3(CCC3)C(=O)N(C)[C@@H](C3CCCC3)C(=O)N(C)[C@H](C(=O)N(C)C)CC(=O)N(C)[C@@H](C)C(=O)N[C@@H]([C@@H](C)CC)C(=O)N(C)CC(=O)N(C)[C@H]3CCCCCN(C3=O)[C@@H](Cc3ccc(F)cc3)C(=O)N(C)CC(=O)N[C@@H](CCc3cc(F)c(C(F)(F)F)c(F)c3)C(=O)N2C1 [PP1189],0.066 nM,B (a compound having 3 or more and less than 10 is denoted as B),B (a compound having 3 or more and less than 10 is denoted as B),16.1 nM
CCO[C@@H]1C[C@H]2C(=O)NC3(CCC3)C(=O)N(C)[C@@H](C3CCCC3)C(=O)N(C)[C@H](C(=O)N(C)C)CC(=O)N(C)[C@@H](CC)C(=O)N[C@@H]([C@@H](C)CC)C(=O)N(C)CC(=O)N(C)[C@H]3CCCCCN(C3=O)[C@@H](Cc3ccc(F)cc3)C(=O)N(C)CC(=O)N[C@@H](CCc3cc(F)c(C(F)(F)F)c(F)c3)C(=O)N2C1 [PP1190],0.092 nM,B (a compound having 3 or more and less than 10 is denoted as B),B (a compound having 3 or more and less than 10 is denoted as B),15.5 nM
CCO[C@@H]1C[C@H]2C(=O)NC3(CCC3)C(=O)N(C)[C@@H](C3CCCC3)C(=O)N(C)[C@H](C(=O)N(C)C)CC(=O)N(C)[C@@H](CC(F)F)C(=O)N[C@@H]([C@@H](C)CC)C(=O)N(C)CC(=O)N(C)[C@H]3CCCCCN(C3=O)[C@@H](Cc3ccc(F)cc3)C(=O)N(C)CC(=O)N[C@@H](CCc3cc(F)c(C(F)(F)F)c(F)c3)C(=O)N2C1 [PP1191],0.056 nM,A (a compound having 10 or more and less than 20 is denoted as A),B (a compound having 3 or more and less than 10 is denoted as B),13 nM
CCO[C@@H]1C[C@H]2C(=O)NC3(CCC3)C(=O)N(C)[C@@H](C3CCCC3)C(=O)N(C)[C@H](C(=O)N(C)C)CC(=O)N(C)[C@@H](Cc3cccnc3)C(=O)N[C@@H]([C@@H](C)CC)C(=O)N(C)CC(=O)N(C)[C@H]3CCCCCN(C3=O)[C@@H](Cc3ccc(F)cc3)C(=O)N(C)CC(=O)N[C@@H](CCc3cc(F)c(C(F)(F)F)c(F)c3)C(=O)N2C1 [PP1196],0.04 nM,B (a compound having 3 or more and less than 10 is denoted as B),B (a compound having 3 or more and less than 10 is denoted as B),50.8 nM
